Patent US12281122B1, “PI3K inhibitors” (Cogent Biosciences, Inc., priority 2023, dated 2025)
pIC50: −log10 of the molar value.

What was measured:
[1] = tested on: SKBR3 (PI3Kα-Wild Type) cell line; assay: HTRF phospho-AKT(S473) cell assay in SKBR3 cells; type: cell-based, human
How it was run: (§1)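 pAKT(S473) in lysates read by HTRF after a 2 h, 37 °C compound exposure (12-point 1:3 series, max 0.5% DMSO). SKBR3 (wild type, top 10 μM) received 70 ng/ml PDGF-BB during the final 15 min; T47D (H1047R, top 5 μM) was unstimulated. IC50 values derived from the dose-response.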

[2] = tested on: T47D (PI3Kα-H1047R) cell line; assay: HTRF phospho-AKT(S473) cell assay in T47D cells; type: cell-based, human
How it was run: as §1

[3] = Homo sapiens, SK-BR-3; HTRF phospho-AKT(S473), SKBR3 (PI3Kα-Wild Type) cells, 2 hours compound incubation, PDGF-BB stimulated
[4] = Homo sapiens; HTRF phospho-AKT(S473), T47D (PI3Kα-H1047R) cells, 2 hours compound incubation
[5] = Homo sapiens, SK-BR-3; SKBR3 (PI3Kα-Wild Type) cells, HTRF phospho-AKT(S473), 2 hours compound incubation, PDGF-BB stimulated
[6] = Homo sapiens; T47D (PI3Kα-H1047R) cells, HTRF phospho-AKT(S473), 2 hours compound incubation

Row | pIC50 [1, 3] | pIC50 [2, 4] | pIC50 [1, 5] | pIC50 [2, 6] | SMILES
1 | 6.00 to 6.30 | > 6.60 |  |  | Cc1cc([C@@H](C)Nc2ccc(Cl)nc2C(=O)NS(C)(=O)=O)c2nc(-c3ccc4c(cnn4C)c3)n(C)c(=O)c2c1 [Compound 774, (R)-6-chloro-3-((1-(3,6-dimethyl-2-(1-methyl-1H-indazol-5-yl)-4-oxo-3,4-dihydroquinazolin-8-yl)ethyl)amino)-N-(methylsulfonyl) picolinamide]
2 |  |  | ≤ 5.30 | > 6.60 | Cc1cc([C@@H](C)Nc2ccc(Cl)nc2C(=O)NS(C)(=O)=O)c2nc(N3Cc4cnn(-c5ccccc5C)c4C3)n(C)c(=O)c2c1 [Compound 191, (R)-6-chloro-3-((1-(3,6-dimethyl-4-oxo-2-(1-(o-tolyl)-4,6-dihydropyrrolo[3,4-c]pyrazol-5(1H)-yl)-3,4-dihydroquinazolin-8-yl)ethyl)amino)-N-(methylsulfonyl) picolinamide]
3 | ≤ 5.30 | 6.30 to 6.60 |  |  | Cc1cc([C@@H](C)Nc2ccc(Cl)nc2C(=O)NS(C)(=O)=O)c2nc(N3C[C@@H]4[C@H](C3)[C@H]4c3nnc(C)n3C(F)F)n(C)c(=O)c2c1 [Compound 644, 6-chloro-3-(((R)-1-(2-((1R,5S,6R)-6-(4-(difluoromethyl)-5-methyl-4H-1,2,4-triazol-3-yl)-3-azabicyclo[3.1.0]hexan-3-yl)-3,6-dimethyl-4-oxo-3,4-dihydroquinazolin-8-yl)ethyl)amino)-N-(methylsulfonyl) picolinamide]
4 | 5.30 to 6.00 | > 6.60 |  |  | Cc1cc([C@@H](C)Nc2ccc(Cl)nc2C(=O)NS(C)(=O)=O)c2nc(N3CCC4(CCOCC4)CC3)n(C)c(=O)c2c1 [Compound 690, (R)-6-chloro-3-((1-(3,6-dimethyl-4-oxo-2-(3-oxa-9-azaspiro[5.5]undecan-9-yl)-3,4-dihydroquinazolin-8-yl)ethyl)amino)-N-(methylsulfonyl) picolinamide]
5 | 5.30 to 6.00 | 6.30 to 6.60 |  |  | Cc1cc([C@@H](C)Nc2ccc(Cl)nc2C(=O)NS(C)(=O)=O)c2nc(N3C[C@@H]4[C@H](C3)[C@H]4c3n[nH]cc3C)n(C)c(=O)c2c1 [Compound 651, 6-chloro-3-(((R)-1-(3,6-dimethyl-2-((1R,5S,6R)-6-(4-methyl-1H-pyrazol-3-yl)-3-azabicyclo[3.1.0]hexan-3-yl)-4-oxo-3,4-dihydroquinazolin-8-yl)ethyl)amino)-N-(methylsulfonyl) picolinamide]
6 |  |  | 5.30 to 6.00 | > 6.60 | Cc1cc([C@@H](C)Nc2ccc(Cl)nc2C(=O)NS(C)(=O)=O)c2nc(C3CCN(c4cnn(C)c4)CC3)n(C)c(=O)c2c1 [Compound 227, (R)-6-chloro-3-((1-(3,6-dimethyl-2-(1-(1-methyl-1H-pyrazol-4-yl)piperidin-4-yl)-4-oxo-3,4-dihydroquinazolin-8-yl)ethyl)amino)-N-(methylsulfonyl) picolinamide]
7 |  |  | 5.30 to 6.00 | > 6.60 | Cc1cc([C@@H](C)Nc2ccc(Cl)nc2C(=O)NS(C)(=O)=O)c2nc(N3CCC(c4ccn(C)c(=O)c4)CC3)n(C)c(=O)c2c1 [Compound 319, (R)-6-chloro-3-((1-(3,6-dimethyl-2-(4-(1-methyl-2-oxo-1,2-dihydropyridin-4-yl)piperidin-1-yl)-4-oxo-3,4-dihydroquinazolin-8-yl)ethyl)amino)-N-(methylsulfonyl) picolinamide]
8 | 5.30 to 6.00 | > 6.60 |  |  | Cc1cc([C@@H](C)Nc2ccc(Cl)nc2C(=O)NS(C)(=O)=O)c2nc(N3CCC(c4csc(C)n4)CC3)n(C)c(=O)c2c1 [Compound 503, (R)-6-chloro-3-((1-(3,6-dimethyl-2-(4-(2-methylthiazol-4-yl)piperidin-1-yl)-4-oxo-3,4-dihydroquinazolin-8-yl)ethyl)amino)-N-(methylsulfonyl) picolinamide]
9 | 5.30 to 6.00 | > 6.60 |  |  | Cc1cc([C@@H](C)Nc2ccc(Cl)nc2C(=O)NS(C)(=O)=O)c2nc(N3CCN(c4cncc(C)n4)CC3)n(C)c(=O)c2c1 [Compound 529, (R)-6-chloro-3-((1-(3,6-dimethyl-2-(4-(6-methylpyrazin-2-yl)piperazin-1-yl)-4-oxo-3,4-dihydroquinazolin-8-yl)ethyl)amino)-N-(methylsulfonyl) picolinamide]
10 | ≤ 5.30 | > 6.60 |  |  | [2H]C([2H])([2H])n1ccc(C2CCN(c3nc4c([C@@H](C)Nc5ccc(Cl)nc5C(=O)NS(C)(=O)=O)cc(C)cc4c(=O)n3C)CC2)n1 [Compound 746, (R)-6-chloro-3-((1-(3,6-dimethyl-2-(4-(1-(methyl-d3)-1H-pyrazol-3-yl)piperidin-1-yl)-4-oxo-3,4-dihydroquinazolin-8-yl)ethyl)amino)-N-(methylsulfonyl) picolinamide]
11 | ≤ 5.30 | 6.30 to 6.60 |  |  | COc1ccc(N2C[C@@H]3C[C@H]2CN3c2nc3c([C@@H](C)Nc4ccc(Cl)nc4C(=O)NS(C)(=O)=O)cc(C)cc3c(=O)n2C)cn1 [Compound 636, 6-chloro-3-(((R)-1-(2-((1S,4S)-5-(6-methoxypyridin-3-yl)-2,5-diazabicyclo [2.2.1]heptan-2-yl)-3,6-dimethyl-4-oxo-3,4-dihydroquinazolin-8-yl)ethyl)amino)-N-(methylsulfonyl) picolinamide]
12 | ≤ 5.30 | 6.30 to 6.60 |  |  | Cc1cc([C@@H](C)Nc2ccc(Cl)nc2C(=O)NS(C)(=O)=O)c2nc(N3CCC(c4ccnn4C(F)(F)F)CC3)n(C)c(=O)c2c1 [Compound 446, (R)-6-chloro-3-((1-(3,6-dimethyl-4-oxo-2-(4-(1-(trifluoromethyl)-1H-pyrazol-5-yl)piperidin-1-yl)-3,4-dihydroquinazolin-8-yl)ethyl)amino)-N-(methylsulfonyl) picolinamide]
13 | ≤ 5.30 | 6.30 to 6.60 |  |  | Cc1cc([C@@H](C)Nc2ccc(Cl)nc2C(=O)NS(C)(=O)=O)c2nc(N3C[C@@H]4[C@H](C3)[C@H]4c3n[nH]cc3Cl)n(C)c(=O)c2c1 [Compound 593, 6-chloro-3-(((R)-1-(2-((1R,5S,6R)-6-(4-chloro-1H-pyrazol-3-yl)-3-azabicyclo[3.1.0]hexan-3-yl)-3,6-dimethyl-4-oxo-3,4-dihydroquinazolin-8-yl)ethyl)amino)-N-(methylsulfonyl) picolinamide]
14 | 5.30 to 6.00 | > 6.60 |  |  | Cc1cc([C@@H](C)Nc2ccc(Cl)nc2C(=O)NS(C)(=O)=O)c2nc(N3CCc4nn(C(F)F)cc4C3)n(C)c(=O)c2c1 [Compound 627, (R)-6-chloro-3-((1-(2-(2-(difluoromethyl)-2,4,6,7-tetrahydro-5H-pyrazolo[4,3-c]pyridin-5-yl)-3,6-dimethyl-4-oxo-3,4-dihydroquinazolin-8-yl)ethyl)amino)-N-(methylsulfonyl) picolinamide]
15 |  |  | ≤ 5.30 | 6.30 to 6.60 | Cc1cc([C@@H](C)Nc2ccc(Cl)nc2C(=O)NS(C)(=O)=O)c2nc(N3C[C@@H]4[C@H](C3)[C@H]4c3nn(C)cc3Cl)n(C)c(=O)c2c1 [Compound 401, 6-chloro-3-(((R)-1-(2-((1R,5S,6R)-6-(4-chloro-1-methyl-1H-pyrazol-3-yl)-3-azabicyclo[3.1.0]hexan-3-yl)-3,6-dimethyl-4-oxo-3,4-dihydroquinazolin-8-yl)ethyl)amino)-N-(methylsulfonyl) picolinamide]
16 |  |  | 5.30 to 6.00 | 6.30 to 6.60 | C[C@@H](Nc1ccc(Cl)nc1C(=O)NS(C)(=O)=O)c1cc(F)cc2c(=O)n(C)c(N3CCC(c4nn(C)cc4F)CC3)nc12 [Compound 364, (R)-6-chloro-3-((1-(6-fluoro-2-(4-(4-fluoro-1-methyl-1H-pyrazol-3-yl)piperidin-1-yl)-3-methyl-4-oxo-3,4-dihydroquinazolin-8-yl)ethyl)amino)-N-(methylsulfonyl) picolinamide]
17 |  |  | 5.30 to 6.00 | > 6.60 | Cc1cc([C@@H](C)Nc2ccc(Cl)nc2C(=O)NS(C)(=O)=O)c2nc(N3Cc4cn(C(F)(F)F)nc4C3)n(C)c(=O)c2c1 [Compound 210, (R)-6-chloro-3-((1-(3,6-dimethyl-4-oxo-2-(2-(trifluoromethyl)-2,6-dihydropyrrolo[3,4-c]pyrazol-5(4H)-yl)-3,4-dihydroquinazolin-8-yl)ethyl)amino)-N-(methylsulfonyl) picolinamide]
18 | 5.30 to 6.00 | 6.30 to 6.60 |  |  | Cc1cc([C@@H](C)Nc2ccc(Cl)nc2C(=O)NS(C)(=O)=O)c2nc(N3CCC(c4nnc(C)n4C(F)F)CC3)n(C)c(=O)c2c1 [Compound 725, (R)-6-chloro-3-((1-(2-(4-(4-(difluoromethyl)-5-methyl-4H-1,2,4-triazol-3-yl)piperidin-1-yl)-3,6-dimethyl-4-oxo-3,4-dihydroquinazolin-8-yl)ethyl)amino)-N-(methylsulfonyl) picolinamide]

Row | SMILES | pIC50 [1, 3] | pIC50 [2, 4] | pIC50 [1, 5] | pIC50 [2, 6]
19 | Cc1cc([C@@H](C)Nc2ccc(Cl)nc2C(=O)NS(C)(=O)=O)c2nc(N3[C@@H]4CC[C@H]3C[C@@H](c3cnc(C)nc3)C4)n(C)c(=O)c2c1 [Compound 299, 6-chloro-3-(((R)-1-(3,6-dimethyl-2-((1R,3R,5S)-3-(2-methylpyrimidin-5-yl)-8-azabicyclo[3.2.1]octan-8-yl)-4-oxo-3,4-dihydroquinazolin-8-yl)ethyl)amino)-N-(methylsulfonyl) picolinamide] |  |  | 5.30 to 6.00 | > 6.60
20 | Cc1cc([C@@H](C)Nc2ccc(Cl)nc2C(=O)NS(C)(=O)=O)c2nc(N3[C@@H]4CC[C@H]3C[C@H](c3ccn(C)n3)C4)n(C)c(=O)c2c1 [Compound 342, 6-chloro-3-(((R)-1-(3,6-dimethyl-2-((1R,3S,5S)-3-(1-methyl-1H-pyrazol-3-yl)-8-azabicyclo[3.2.1]octan-8-yl)-4-oxo-3,4-dihydroquinazolin-8-yl)ethyl)amino)-N-(methylsulfonyl) picolinamide] |  |  | 5.30 to 6.00 | > 6.60
